What was measured:
Cytochrome P450 2C9 = Cytochrome P450 2C9 (Homo sapiens, UniProt P11712); assay: Inhibition of CYP2C9; format: ADME
Cytochrome P450 2D6 = Cytochrome P450 2D6 (Homo sapiens, UniProt P10635); assay: Inhibition of CYP2D6; format: ADME
Cytochrome P450 1A2 = target: T1, Cytochrome P450 1A2 (Homo sapiens, UniProt P05177); assay: Inhibition of CYP1A2; format: ADME
T1 sequence (P05177 whole entry): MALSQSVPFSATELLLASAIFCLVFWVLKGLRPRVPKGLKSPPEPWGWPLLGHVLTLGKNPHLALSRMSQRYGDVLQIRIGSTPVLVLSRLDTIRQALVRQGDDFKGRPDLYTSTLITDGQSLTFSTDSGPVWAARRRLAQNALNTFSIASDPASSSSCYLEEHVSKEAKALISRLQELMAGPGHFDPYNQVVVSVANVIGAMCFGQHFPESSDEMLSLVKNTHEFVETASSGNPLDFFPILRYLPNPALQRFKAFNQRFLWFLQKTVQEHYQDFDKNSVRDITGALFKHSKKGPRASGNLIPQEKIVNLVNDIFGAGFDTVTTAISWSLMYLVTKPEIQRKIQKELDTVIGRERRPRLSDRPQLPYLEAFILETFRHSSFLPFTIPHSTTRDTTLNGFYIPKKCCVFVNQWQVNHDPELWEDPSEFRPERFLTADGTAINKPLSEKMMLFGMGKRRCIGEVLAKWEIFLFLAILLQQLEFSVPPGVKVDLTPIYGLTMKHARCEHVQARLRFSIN

[1] = Clearance in rat blood at 0.5 mg/kg, iv and 1 mg/kg, po; format: ADME, organism-based; settings: whole blood
Cytochrome P450 3A4 = Cytochrome P450 3A4 (Homo sapiens, UniProt P08684); assay: Inhibition of CYP3A4; format: ADME
Cytochrome P450 3A4, sequence (P08684 whole entry): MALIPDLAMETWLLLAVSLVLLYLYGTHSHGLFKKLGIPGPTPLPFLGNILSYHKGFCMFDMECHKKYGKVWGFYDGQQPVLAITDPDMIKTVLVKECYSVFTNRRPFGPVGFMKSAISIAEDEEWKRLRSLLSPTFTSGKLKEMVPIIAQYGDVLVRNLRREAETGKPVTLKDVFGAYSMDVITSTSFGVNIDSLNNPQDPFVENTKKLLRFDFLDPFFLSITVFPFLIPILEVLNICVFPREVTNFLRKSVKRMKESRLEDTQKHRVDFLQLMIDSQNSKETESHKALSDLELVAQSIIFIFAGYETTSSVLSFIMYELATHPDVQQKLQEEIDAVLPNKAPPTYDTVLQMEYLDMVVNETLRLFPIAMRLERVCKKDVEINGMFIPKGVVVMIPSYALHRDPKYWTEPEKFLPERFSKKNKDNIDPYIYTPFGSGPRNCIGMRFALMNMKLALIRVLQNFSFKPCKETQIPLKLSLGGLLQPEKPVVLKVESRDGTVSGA

Cytochrome P450 2C19 = Cytochrome P450 2C19 (Homo sapiens, UniProt P33261); assay: Inhibition of CYP2C19; format: ADME
Cytochrome P450 2C19, sequence (P33261 whole entry): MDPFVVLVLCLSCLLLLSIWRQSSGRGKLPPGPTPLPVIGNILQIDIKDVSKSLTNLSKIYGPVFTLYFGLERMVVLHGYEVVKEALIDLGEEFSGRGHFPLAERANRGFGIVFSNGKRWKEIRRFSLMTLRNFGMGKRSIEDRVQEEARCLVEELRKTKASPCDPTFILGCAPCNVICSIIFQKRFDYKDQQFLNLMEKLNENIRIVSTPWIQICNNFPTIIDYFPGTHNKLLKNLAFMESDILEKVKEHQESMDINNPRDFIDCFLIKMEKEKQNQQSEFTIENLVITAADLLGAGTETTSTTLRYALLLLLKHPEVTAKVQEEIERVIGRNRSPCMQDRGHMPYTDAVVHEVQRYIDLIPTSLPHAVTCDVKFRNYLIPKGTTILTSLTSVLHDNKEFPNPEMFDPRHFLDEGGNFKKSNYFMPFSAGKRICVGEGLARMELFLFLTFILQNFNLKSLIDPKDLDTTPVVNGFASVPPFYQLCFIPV

Liver microsomes [2] = assay: Intrinsic clearance in rat liver microsome; format: ADME
Liver microsomes [3] = assay: Intrinsic clearance in human liver microsome; format: ADME
[4] = target: T2, Neuropeptide Y receptor type 5 (Homo sapiens, UniProt Q15761); assay: Antagonist activity at human NPY Y5 receptor; format: functional
T2 sequence (Q15761 whole entry): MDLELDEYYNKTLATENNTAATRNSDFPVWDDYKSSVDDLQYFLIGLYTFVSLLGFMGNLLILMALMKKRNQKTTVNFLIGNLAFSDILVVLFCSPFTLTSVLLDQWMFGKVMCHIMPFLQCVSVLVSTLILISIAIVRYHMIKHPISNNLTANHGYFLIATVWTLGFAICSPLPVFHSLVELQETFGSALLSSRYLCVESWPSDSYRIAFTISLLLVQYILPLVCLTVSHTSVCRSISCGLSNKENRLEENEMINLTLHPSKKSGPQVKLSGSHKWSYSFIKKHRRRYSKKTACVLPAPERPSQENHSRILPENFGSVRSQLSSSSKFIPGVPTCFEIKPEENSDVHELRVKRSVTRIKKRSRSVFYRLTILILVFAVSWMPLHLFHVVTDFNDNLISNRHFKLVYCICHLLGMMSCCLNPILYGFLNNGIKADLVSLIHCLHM

[5] = Protein binding in rat brain assessed as unbound fraction; format: ADME, tissue-based; settings: brain tissue
[6] = Oral bioavailability in rat at 1 mg/kg; format: ADME, organism-based; settings: in vivo
Rattus norvegicus = assay: In vivo antagonist activity at NPY Y5 receptor in orally dosed rat assessed as reduction in food intake; settings: oral, read-out: MED
[7] = Ratio of drug uptake from blood to brain in rat; format: ADME, tissue-based; settings: brain and blood

Cytochrome P450 2C9, sequence (P11712 whole entry): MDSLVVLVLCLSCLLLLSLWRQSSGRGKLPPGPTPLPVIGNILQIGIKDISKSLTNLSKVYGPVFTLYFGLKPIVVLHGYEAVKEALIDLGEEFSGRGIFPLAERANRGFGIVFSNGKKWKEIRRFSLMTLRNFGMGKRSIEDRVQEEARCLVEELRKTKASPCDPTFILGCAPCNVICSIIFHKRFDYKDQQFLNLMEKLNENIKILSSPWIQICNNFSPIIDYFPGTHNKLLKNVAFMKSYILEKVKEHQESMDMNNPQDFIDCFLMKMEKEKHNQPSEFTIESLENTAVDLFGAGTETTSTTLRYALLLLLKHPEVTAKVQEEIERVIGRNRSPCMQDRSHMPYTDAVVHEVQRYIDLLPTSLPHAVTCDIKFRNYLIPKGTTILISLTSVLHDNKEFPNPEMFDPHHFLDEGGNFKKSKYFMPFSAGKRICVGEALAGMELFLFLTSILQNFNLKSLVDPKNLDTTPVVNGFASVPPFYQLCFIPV
Cytochrome P450 2D6, sequence (P10635 whole entry): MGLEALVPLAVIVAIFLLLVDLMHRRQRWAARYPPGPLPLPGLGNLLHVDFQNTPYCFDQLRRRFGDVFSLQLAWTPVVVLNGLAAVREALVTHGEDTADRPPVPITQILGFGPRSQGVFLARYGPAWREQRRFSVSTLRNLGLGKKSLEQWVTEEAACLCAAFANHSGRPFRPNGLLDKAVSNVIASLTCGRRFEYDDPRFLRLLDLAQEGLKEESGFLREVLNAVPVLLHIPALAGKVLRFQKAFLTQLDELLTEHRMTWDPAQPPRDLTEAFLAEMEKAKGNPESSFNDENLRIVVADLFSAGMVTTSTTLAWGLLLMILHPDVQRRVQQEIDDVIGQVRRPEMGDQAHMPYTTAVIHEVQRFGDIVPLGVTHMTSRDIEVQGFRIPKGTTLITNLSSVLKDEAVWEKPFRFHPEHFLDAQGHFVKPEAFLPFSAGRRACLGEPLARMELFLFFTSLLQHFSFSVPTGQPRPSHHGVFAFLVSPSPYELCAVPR

Row | SMILES | INH (Cytochrome P450 2C9) | INH (Cytochrome P450 2D6) | INH (Cytochrome P450 1A2) | clearance [1] | INH (Cytochrome P450 3A4) | INH (Cytochrome P450 2C19) | clearance (Liver microsomes [2]) | clearance (Liver microsomes [3]) | Ki [4] | fraction unbound [5] | bioavailability [6] | minimal effective dose (Rattus norvegicus) | CL (Liver microsomes [2]) | CL (Liver microsomes [3]) | Kp [7]
1 | FC(F)(F)c1ccc(Nc2nc(-c3ccccn3)cs2)cc1 | < 0.1 µM | < 0.1 µM | < 0.1 µM | 27 mL/min/kg | < 0.1 µM | < 0.1 µM | – | – | – | – | – | – | – | – | –
2 | O=C(Nc1nc(-c2ccccn2)cs1)N1CCC2(CC1)CN(c1ccccc1)C(=O)O2 | > 10 µM | > 10 µM | > 10 µM | – | > 10 µM | > 10 µM | 0.5 mL/min/g | 0.6 mL/min/g | – | – | – | – | – | – | –
3 | Cc1ncccc1N1C[C@]2(CC[C@@H](CNc3cnn(-c4ccccc4F)c3)CC2)OC1=O | > 10 µM | > 10 µM | > 10 µM | – | > 10 µM | – | – | – | 631 pM | – | – | – | – | – | –
4 | O=C1O[C@]2(CC[C@H](CNc3cnn(-c4ccccc4F)c3)CC2)CN1c1cccnc1 | 7 µM | > 10 µM | > 10 µM | – | 1 µM | 8 µM | – | – | 100 pM | 0.025 | – | – | – | – | –
5 | O=C1O[C@]2(CC[C@H](CNc3ccc(-c4nccs4)cn3)CC2)CN1c1ccccn1 | 0.3 µM | 1 µM | > 10 µM | – | 7 µM | 3 µM | – | – | 126 pM | – | – | – | – | – | –
6 | O=C1O[C@]2(CC[C@H](CNc3ccc(-c4ncccn4)cn3)CC2)CN1c1ccccn1 | 5 µM | > 10 µM | > 10 µM | – | > 10 µM | 10 µM | – | – | 158 pM | 0.035 | – | – | – | – | –
7 | O=C1O[C@]2(CC[C@H](CNc3ccc(OC4CCC4)cn3)CC2)CN1c1ccccn1 | 2 µM | 2 µM | > 10 µM | – | 3 µM | 7 µM | – | – | 158 pM | – | – | – | – | – | –
8 | O=C1O[C@]2(CC[C@H](CNc3ccc(C(F)(F)F)cn3)CC2)CN1c1ccccn1 | 2 µM | > 10 µM | > 10 µM | – | > 10 µM | 5 µM | – | – | 1000 pM | 0.005 | – | – | – | – | –
9 | O=C1O[C@]2(CC[C@H](CNc3ccc(-c4ccccc4F)nc3)CC2)CN1c1ccccn1 | 1 µM | 2 µM | – | – | 9 µM | 9 µM | – | – | 5010 pM | – | – | – | – | – | –
10 | O=C1O[C@]2(CC[C@H](CNc3ccc(-c4ccccc4F)nn3)CC2)CN1c1ccccn1 | 1 µM | 2 µM | 5 µM | – | > 10 µM | 2 µM | – | – | 63.1 pM | 0.016 | – | – | – | – | –
11 | O=C1O[C@]2(CC[C@H](CNc3cnc(-c4ccccc4F)cn3)CC2)CN1c1ccccn1 | 0.3 µM | > 10 µM | > 10 µM | – | > 10 µM | 2 µM | – | – | 25.1 pM | 0.002 | – | – | – | – | –
12 | O=C1O[C@]2(CC[C@H](CNc3nc(-c4ccccn4)cs3)CC2)CN1c1ccccn1 | 6 µM | > 10 µM | > 10 µM | 30 mL/min/kg | 3 µM | 3 µM | – | – | 79.4 pM | 0.01 | 35% | 10 mg/kg | 3.1 mL/min/g | 4 mL/min/g | 0.7
13 | O=C1O[C@]2(CC[C@H](CNc3ccn(-c4ccccc4F)n3)CC2)CN1c1ccccn1 | 2 µM | > 10 µM | > 10 µM | – | > 10 µM | 4 µM | – | – | 31.6 pM | – | – | – | – | – | –
14 | O=C1O[C@]2(CC[C@H](CNc3ncc(-c4ccccc4F)cn3)CC2)CN1c1ccccn1 | 1 µM | > 10 µM | 6 µM | – | 5 µM | 4 µM | – | – | 316 pM | < 0.01 | – | – | – | – | –
15 | O=C1O[C@]2(CC[C@H](CNc3cnn(-c4ccccc4F)c3)CC2)CN1c1cncnc1 | > 10 µM | > 10 µM | > 10 µM | – | 2 µM | 6 µM | – | – | 39.8 pM | 0.044 | – | – | – | – | –
16 | O=C1O[C@]2(CC[C@H](CNc3cnn(-c4ccccc4F)c3)CC2)CN1c1cccnc1F | 6 µM | > 10 µM | > 10 µM | – | 5 µM | 8 µM | – | – | 100 pM | 0.019 | – | – | – | – | –
17 | O=C1O[C@]2(CC[C@H](CNc3cnn(-c4ccccc4F)c3)CC2)CN1c1cnccn1 | 3 µM | 2 µM | > 10 µM | – | 0.6 µM | 2 µM | – | – | 63.1 pM | 0.017 | – | – | – | – | –
18 | O=C1O[C@]2(CC[C@H](CNc3cnn(-c4ccccc4F)c3)CC2)CN1c1cccnn1 | > 10 µM | > 10 µM | > 10 µM | 13 mL/min/kg | > 10 µM | – | – | – | 100 pM | 0.031 | 52% | 3 mg/kg | < 0.5 mL/min/g | < 0.5 mL/min/g | 0.9
19 | O=C1O[C@]2(CC[C@H](CNc3cnn(-c4ccccc4F)c3)CC2)CN1c1ccnnc1 | > 10 µM | > 10 µM | > 10 µM | – | 6 µM | > 10 µM | – | – | 200 pM | 0.044 | – | – | – | – | –
20 | Cc1nnc(N2C[C@]3(CC[C@@H](CNc4cnn(-c5ccccc5F)c4)CC3)OC2=O)s1 | > 10 µM | > 10 µM | > 10 µM | – | 6 µM | > 10 µM | – | – | 200 pM | 0.026 | – | – | – | – | –
21 | O=C1O[C@]2(CC[C@H](CNc3ccc(-c4ncccn4)cn3)CC2)CN1c1cccnn1 | > 10 µM | > 10 µM | > 10 µM | – | – | > 10 µM | – | – | 1580 pM | – | – | – | – | – | –
22 | O=C1O[C@]2(CC[C@H](CNc3ccc(-c4ccccc4F)nn3)CC2)CN1c1cccnn1 | > 10 µM | > 10 µM | > 10 µM | 18 mL/min/kg | > 10 µM | > 10 µM | – | – | 158 pM | 0.046 | 90% | – | < 0.5 mL/min/g | < 0.5 mL/min/g | 0.25
23 | O=C1O[C@]2(CC[C@H](CNc3ccc(-c4cc(F)cc(F)c4)nn3)CC2)CN1c1cccnn1 | 8 µM | > 10 µM | > 10 µM | 41 mL/min/kg | > 10 µM | – | – | – | 100 pM | 0.016 | 75% | 3 mg/kg | < 0.5 mL/min/g | < 0.5 mL/min/g | 1.6
24 | Cc1ccccc1-c1ccc(NC[C@H]2CC[C@]3(CC2)CN(c2cccnn2)C(=O)O3)nn1 | > 10 µM | > 10 µM | > 10 µM | – | > 10 µM | > 10 µM | – | – | 63.1 pM | 0.051 | – | – | – | – | –
25 | Cc1cccc(-c2ccc(NC[C@H]3CC[C@]4(CC3)CN(c3cccnn3)C(=O)O4)nc2)n1 | > 10 µM | > 10 µM | > 10 µM | – | > 10 µM | > 10 µM | – | – | 251 pM | 0.056 | – | – | – | – | –
26 | O=C1O[C@]2(CC[C@H](CNc3ccc(-c4ncccc4F)cn3)CC2)CN1c1cccnn1 | > 10 µM | > 10 µM | > 10 µM | 70 mL/min/kg | > 10 µM | > 10 µM | – | – | 316 pM | 0.052 | 50% | – | – | – | 0.4

— ChEMBL document CHEMBL1255172, “Discovery and structure-activity relationship of a novel spirocarbamate series of NPY Y5 antagonists” (Bioorg Med Chem Lett, 2010)
